Four molecules from the NIST ThermoML archive (doi:10.1016/j.fluid.2009.05.005) can be followed below.

A short description of data set [1]: Excess molar heat capacity; xn = mol fraction of the nth substance listed. The note with it: 298.15 K; 101 kPa; Liquid; Flow calorimetry; x2 = 0.
A short description of data set [2]: activity coefficient (dimensionless); of the first substance listed, at infinite dilution; xn = mol fraction of the nth substance listed. The note with it: 101 kPa, Liquid, circulation still, x1 = 0.
The mark [3] stands for this setting: 333.15 K, Rayleigh distillation.
Setting [4] is: 343.15 K, Rayleigh distillation.
The mark [5] stands for this setting: 353.15 K, Rayleigh distillation.

± gives the expanded uncertainty stated by the source.

On to `O` [water] + CN1CCCC1=O, for which the molar heat capacity in data set [1] turned out to be 131 ± 2 J/K/mol.
As to `c1ccncc1` [pyridine] + O, the activity coefficient turned out to be 24 ± 0.1 in data set [2] (setting [3]); 25.5 ± 0.1 in data set [2] (setting [4]); 26 ± 0.1 in data set [2] (setting [5]); 25.4 ± 0.1 in data set [2] (372.8 K, Rayleigh distillation).
As to `CN1CCCC1=O` [N-methylpyrrolidone] + O, the activity coefficient in data set [2] (333.15 K, differential distillation) was 1.34 ± 0.06; in data set [2] (343.15 K, differential distillation), 1.56 ± 0.06; in data set [2] (353.15 K, differential distillation) it was 1.75 ± 0.06; in data set [2] (372.85 K, differential distillation), 2.07 ± 0.1.
As to `C1CCNCC1` [piperidine] + O, the activity coefficient came to 11.9 ± 0.1 in data set [2] (setting [3]); 14.7 ± 0.1 in data set [2] (setting [4]); 17.7 ± 0.1 in data set [2] (setting [5]); 21 ± 0.1 in data set [2] (372.6 K, Rayleigh distillation).
